Experimental data published in ChEMBL document CHEMBL5653631, “A Potent and Selective ULK1 Inhibitor Suppresses Autophagy and Sensitizes Cancer Cells to Nutrient Stress” (iScience, 2018).

Tests used:
[1] = target: Mitogen-activated protein kinase 11 (Homo sapiens) (UniProt Q15759); test: Inhibition of human recombinant p38beta at 40 nM in presence of ATP by radiometric assay relative to control
[2] = target: T1, Serine/threonine-protein kinase TAO3 (Homo sapiens) (UniProt Q9H2K8); test: Inhibition of human recombinant TAO3 at 40 nM in presence of ATP by radiometric assay relative to control
T1 sequence (whole entry): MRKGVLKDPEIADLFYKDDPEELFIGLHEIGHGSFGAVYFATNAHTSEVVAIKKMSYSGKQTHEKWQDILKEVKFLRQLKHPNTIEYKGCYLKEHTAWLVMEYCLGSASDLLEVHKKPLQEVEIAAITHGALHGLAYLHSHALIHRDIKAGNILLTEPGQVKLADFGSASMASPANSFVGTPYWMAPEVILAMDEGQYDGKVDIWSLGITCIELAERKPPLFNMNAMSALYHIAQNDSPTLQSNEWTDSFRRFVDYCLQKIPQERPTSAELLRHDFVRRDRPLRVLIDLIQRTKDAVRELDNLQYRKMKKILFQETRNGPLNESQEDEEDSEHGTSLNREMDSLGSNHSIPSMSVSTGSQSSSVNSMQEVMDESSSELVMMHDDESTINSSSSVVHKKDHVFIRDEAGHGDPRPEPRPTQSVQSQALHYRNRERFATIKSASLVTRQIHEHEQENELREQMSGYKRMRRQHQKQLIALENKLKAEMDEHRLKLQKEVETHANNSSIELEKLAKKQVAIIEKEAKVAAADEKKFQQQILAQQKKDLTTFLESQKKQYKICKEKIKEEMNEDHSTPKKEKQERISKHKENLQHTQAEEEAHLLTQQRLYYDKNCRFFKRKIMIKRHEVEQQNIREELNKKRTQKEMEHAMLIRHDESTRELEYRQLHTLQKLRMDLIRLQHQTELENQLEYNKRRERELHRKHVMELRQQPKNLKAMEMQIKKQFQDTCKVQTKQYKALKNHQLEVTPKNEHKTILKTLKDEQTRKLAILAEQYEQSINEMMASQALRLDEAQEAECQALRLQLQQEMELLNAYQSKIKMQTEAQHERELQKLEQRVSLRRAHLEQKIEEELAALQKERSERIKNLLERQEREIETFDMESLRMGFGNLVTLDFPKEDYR

[3] = target: Serine/threonine-protein kinase PAK 4 (Homo sapiens) (UniProt O96013); test: Inhibition of human recombinant PAK4 at 40 nM in presence of ATP by radiometric assay relative to control
Sequence of Serine/threonine-protein kinase PAK 4 (Homo sapiens) (O96013 whole entry, looked up): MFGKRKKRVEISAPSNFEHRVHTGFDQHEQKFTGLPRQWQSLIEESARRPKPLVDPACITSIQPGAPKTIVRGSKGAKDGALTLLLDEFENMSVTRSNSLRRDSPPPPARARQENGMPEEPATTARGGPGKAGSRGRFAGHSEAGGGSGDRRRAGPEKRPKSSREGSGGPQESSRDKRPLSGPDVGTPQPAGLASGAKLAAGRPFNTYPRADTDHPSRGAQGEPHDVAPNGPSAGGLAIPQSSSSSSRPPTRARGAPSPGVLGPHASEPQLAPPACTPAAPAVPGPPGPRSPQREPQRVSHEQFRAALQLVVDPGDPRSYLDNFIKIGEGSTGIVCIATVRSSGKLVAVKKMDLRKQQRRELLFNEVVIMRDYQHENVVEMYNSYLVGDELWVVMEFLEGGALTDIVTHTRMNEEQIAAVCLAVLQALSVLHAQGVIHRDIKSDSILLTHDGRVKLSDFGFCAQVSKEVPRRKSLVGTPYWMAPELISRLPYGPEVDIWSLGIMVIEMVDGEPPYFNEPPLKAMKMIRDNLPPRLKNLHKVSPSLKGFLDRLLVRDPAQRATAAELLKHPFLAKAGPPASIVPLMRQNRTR

[4] = target: T2, Mitogen-activated protein kinase kinase kinase 3 (Homo sapiens) (UniProt Q99759); test: Inhibition of human recombinant MAP3K3 at 500 nM in presence of ATP by radiometric assay relative to control
T2 sequence (whole entry): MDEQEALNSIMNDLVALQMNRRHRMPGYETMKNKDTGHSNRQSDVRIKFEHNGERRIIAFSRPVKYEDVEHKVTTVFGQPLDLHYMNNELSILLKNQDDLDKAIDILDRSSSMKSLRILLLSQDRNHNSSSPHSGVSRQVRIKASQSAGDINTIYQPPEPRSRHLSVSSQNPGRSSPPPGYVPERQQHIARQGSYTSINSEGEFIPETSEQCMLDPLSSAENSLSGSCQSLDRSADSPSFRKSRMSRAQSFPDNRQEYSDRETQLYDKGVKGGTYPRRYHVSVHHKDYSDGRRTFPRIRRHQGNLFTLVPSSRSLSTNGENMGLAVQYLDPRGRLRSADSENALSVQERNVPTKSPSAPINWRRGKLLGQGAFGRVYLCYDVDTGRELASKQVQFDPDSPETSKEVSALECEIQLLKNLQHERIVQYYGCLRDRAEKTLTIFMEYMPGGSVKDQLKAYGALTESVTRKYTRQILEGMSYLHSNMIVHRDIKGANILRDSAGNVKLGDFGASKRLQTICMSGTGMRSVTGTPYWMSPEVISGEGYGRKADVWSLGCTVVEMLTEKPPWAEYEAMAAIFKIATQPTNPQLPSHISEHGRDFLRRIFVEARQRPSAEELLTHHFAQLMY

[5] = target: Serine/threonine-protein kinase WNK1 (Homo sapiens) (UniProt Q9H4A3); test: Inhibition of human recombinant Wnk1 at 500 nM related to control ULK1
Sequence of Serine/threonine-protein kinase WNK1 (Homo sapiens) (Q9H4A3 whole entry, looked up): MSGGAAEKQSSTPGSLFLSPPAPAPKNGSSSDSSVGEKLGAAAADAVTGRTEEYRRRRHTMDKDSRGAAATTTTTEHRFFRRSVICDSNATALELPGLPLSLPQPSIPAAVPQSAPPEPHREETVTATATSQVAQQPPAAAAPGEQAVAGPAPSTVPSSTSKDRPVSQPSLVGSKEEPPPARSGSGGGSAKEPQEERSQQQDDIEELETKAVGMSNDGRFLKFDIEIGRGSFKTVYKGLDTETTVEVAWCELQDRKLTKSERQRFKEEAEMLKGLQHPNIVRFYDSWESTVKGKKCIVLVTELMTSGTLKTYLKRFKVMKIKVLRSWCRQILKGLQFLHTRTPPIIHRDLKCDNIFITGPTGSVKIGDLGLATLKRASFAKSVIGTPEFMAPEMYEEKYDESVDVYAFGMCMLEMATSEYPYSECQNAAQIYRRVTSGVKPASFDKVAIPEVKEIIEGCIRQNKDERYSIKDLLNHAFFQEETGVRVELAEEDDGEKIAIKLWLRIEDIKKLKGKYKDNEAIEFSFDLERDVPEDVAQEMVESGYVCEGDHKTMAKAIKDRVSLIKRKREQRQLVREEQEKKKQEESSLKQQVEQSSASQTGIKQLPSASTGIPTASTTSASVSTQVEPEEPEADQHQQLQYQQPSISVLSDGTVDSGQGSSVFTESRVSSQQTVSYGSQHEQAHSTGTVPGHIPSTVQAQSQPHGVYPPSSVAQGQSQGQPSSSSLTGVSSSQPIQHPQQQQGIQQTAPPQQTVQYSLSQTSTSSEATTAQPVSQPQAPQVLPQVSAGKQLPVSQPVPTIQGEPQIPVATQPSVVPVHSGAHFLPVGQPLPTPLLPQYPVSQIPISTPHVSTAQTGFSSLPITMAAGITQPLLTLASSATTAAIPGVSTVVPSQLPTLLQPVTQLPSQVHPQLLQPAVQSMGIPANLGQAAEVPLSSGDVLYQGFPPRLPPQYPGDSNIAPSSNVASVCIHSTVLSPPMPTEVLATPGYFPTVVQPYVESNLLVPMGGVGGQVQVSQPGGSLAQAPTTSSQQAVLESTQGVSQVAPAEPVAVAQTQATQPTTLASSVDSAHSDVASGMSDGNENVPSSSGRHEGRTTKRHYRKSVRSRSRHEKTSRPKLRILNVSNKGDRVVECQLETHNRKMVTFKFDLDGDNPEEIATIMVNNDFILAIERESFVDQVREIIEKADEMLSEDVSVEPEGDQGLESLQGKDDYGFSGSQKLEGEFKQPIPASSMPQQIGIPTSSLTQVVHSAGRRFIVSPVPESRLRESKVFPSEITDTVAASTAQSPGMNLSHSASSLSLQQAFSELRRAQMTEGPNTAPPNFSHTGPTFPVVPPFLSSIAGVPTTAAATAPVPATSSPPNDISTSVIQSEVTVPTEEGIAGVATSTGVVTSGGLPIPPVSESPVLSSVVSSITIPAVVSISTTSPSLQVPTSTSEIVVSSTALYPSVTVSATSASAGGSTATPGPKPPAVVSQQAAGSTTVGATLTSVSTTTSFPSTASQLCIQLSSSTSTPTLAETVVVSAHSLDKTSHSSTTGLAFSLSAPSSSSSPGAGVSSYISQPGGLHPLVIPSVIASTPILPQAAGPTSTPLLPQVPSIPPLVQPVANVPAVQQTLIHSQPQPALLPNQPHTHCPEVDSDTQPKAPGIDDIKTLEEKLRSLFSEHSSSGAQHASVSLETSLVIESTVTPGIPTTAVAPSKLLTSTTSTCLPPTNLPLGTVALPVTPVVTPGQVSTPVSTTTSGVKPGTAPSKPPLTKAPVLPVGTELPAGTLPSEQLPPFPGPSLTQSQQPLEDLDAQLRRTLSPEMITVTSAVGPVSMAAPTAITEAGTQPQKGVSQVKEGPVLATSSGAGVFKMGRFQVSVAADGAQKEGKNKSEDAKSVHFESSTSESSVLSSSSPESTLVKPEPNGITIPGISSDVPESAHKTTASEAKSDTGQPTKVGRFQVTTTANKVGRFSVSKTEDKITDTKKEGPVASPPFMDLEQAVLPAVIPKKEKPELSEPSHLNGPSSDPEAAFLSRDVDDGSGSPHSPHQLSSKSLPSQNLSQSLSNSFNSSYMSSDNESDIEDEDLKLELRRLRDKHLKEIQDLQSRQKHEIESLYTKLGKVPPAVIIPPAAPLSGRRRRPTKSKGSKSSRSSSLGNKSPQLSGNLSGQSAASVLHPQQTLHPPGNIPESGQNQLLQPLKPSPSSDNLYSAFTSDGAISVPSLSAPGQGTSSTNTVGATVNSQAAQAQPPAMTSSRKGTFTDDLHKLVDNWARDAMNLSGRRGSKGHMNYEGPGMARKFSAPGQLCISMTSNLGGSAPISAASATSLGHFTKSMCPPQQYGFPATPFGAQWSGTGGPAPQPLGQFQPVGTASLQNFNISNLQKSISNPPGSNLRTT

[6] = target: Misshapen-like kinase 1 (Homo sapiens) (UniProt Q8N4C8); test: Inhibition of human recombinant MINK at 15 nM related to control ULK1
Sequence of Misshapen-like kinase 1 (Homo sapiens) (Q8N4C8 whole entry, looked up): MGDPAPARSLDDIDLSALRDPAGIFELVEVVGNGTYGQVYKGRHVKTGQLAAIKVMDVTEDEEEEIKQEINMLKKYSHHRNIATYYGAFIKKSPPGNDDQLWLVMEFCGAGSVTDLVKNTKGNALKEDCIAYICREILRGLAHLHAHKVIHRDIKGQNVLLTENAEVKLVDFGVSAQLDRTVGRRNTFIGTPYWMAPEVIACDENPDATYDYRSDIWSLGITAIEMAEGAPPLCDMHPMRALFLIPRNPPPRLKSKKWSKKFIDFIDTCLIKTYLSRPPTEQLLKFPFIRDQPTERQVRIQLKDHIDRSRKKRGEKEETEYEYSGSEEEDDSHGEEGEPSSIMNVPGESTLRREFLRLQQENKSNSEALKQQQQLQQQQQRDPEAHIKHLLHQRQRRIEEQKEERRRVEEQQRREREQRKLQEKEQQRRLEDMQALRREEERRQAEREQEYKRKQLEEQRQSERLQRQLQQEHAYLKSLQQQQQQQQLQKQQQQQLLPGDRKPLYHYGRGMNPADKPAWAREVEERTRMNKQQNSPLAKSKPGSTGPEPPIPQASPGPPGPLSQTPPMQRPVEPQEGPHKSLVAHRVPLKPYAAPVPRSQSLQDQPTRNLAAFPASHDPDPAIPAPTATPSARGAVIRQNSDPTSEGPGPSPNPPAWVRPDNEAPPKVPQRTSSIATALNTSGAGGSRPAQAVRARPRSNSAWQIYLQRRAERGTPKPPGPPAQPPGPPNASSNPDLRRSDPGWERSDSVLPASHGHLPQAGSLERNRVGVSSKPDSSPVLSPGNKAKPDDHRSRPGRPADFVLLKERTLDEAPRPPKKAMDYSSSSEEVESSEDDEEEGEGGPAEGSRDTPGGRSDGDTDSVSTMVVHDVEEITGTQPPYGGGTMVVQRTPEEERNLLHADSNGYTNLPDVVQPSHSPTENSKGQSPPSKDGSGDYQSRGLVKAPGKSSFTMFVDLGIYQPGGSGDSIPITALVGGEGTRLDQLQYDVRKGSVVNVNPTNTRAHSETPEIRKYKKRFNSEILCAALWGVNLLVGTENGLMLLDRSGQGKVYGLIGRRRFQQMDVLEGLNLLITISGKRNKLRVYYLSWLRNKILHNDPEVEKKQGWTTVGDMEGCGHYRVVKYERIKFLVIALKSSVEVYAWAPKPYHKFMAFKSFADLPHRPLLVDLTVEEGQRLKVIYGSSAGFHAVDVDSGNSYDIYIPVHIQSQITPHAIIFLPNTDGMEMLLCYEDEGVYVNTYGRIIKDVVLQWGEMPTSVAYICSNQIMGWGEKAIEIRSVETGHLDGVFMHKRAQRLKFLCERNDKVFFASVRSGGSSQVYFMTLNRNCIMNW

Sequence of Mitogen-activated protein kinase 11 (Homo sapiens) (Q15759 whole entry): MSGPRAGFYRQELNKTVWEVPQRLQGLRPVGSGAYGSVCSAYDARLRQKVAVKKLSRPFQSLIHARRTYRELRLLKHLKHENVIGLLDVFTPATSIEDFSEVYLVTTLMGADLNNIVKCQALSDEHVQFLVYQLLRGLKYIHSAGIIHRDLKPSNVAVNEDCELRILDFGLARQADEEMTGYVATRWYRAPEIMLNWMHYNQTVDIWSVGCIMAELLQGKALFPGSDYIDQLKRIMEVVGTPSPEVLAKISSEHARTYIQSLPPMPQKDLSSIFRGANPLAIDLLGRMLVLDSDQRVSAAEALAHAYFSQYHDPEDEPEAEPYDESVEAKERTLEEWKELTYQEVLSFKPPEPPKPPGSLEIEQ

O=C(N[C@@H](C1CC1)C(F)(F)F)c1cc(-c2cnn3cc(-c4ccc(F)cc4)cnc23)cs1 showed an inhibition [1] of 10%, an inhibition [2] of 0% and an inhibition [3] of 8%.

In the case of CNC(=O)c1ccccc1Oc1nc(Nc2cc(OC)c(OC)c(OC)c2)ncc1Br, the inhibition [4] is reported as 0% and the fold change (FC) [5] is reported as 0.

With CC(C)[C@H](NC(=O)c1cc(-c2cnn3cc(-c4ccc(OCCN5CCCCC5)cc4)cnc23)cs1)C(F)(F)F the fold change (FC) [6] was 0.05.
